Structures are written as SMILES. A value given as a limit tells only on which side of the number the result lay.

These results are taken from patent US12473278B2 (Industry—University Cooperation Foundation Hangyang …, priority 2019, dated 2025).

Sequence of FLT3 (P36888 27-993): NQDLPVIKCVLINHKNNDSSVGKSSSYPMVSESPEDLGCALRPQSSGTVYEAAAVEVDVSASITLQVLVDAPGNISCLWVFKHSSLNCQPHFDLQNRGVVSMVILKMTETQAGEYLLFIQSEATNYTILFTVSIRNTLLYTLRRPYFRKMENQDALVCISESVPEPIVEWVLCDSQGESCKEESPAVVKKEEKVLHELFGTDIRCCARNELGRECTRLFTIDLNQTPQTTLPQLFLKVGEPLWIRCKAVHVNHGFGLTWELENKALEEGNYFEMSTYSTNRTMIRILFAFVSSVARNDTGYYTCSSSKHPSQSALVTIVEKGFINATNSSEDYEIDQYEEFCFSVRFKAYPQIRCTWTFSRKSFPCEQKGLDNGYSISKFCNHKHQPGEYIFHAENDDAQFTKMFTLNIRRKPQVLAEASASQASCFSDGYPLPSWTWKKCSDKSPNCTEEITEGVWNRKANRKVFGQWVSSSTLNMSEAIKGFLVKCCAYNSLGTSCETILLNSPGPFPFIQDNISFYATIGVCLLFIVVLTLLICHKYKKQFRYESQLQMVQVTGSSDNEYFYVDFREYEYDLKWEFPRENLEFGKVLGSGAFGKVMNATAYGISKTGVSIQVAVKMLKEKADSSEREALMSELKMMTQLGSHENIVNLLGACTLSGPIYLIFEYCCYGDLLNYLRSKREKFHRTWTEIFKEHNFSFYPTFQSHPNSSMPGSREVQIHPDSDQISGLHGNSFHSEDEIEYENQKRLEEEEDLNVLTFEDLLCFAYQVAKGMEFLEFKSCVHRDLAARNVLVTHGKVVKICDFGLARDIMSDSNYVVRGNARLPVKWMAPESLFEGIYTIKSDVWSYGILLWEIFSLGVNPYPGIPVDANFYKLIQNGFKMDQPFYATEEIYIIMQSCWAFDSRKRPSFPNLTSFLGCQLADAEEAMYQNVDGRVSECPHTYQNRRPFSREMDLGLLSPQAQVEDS

One test addresses FLT3 (Homo sapiens (Human), UniProt P36888). In words: Measurement of FLT3 enzyme activity. Format: biochemical. The conditions noted are these: FLT3 enzyme activity; read-out: FLT3 (IC50). The source says: Measurement of FLT3 Enzyme Activity
A change in FLT3 enzyme activity by treatment with the benzimidazole derivatives of the following Table 1 according to the present invention was confirmed by IC50.
With `Cc1oncc1C(=O)Nc1ccc2[nH]c(-c3ccc(N4CCOCC4)c(C(F)(F)F)c3)nc2c1` [Compound 5c, 5-methyl-N-(2-(4-morpholino-3-(trifluoromethyl)phenyl)-1H-benz[d]imidazol-5-yl)isoxazole-4-carboxamide], the IC50 lay within 3 to 10 µM.
For the compound `Cc1cn(-c2cc(-c3nc4cc(NC(=O)c5cnoc5C)ccc4[nH]3)cc(C(F)(F)F)c2)cn1` [Compound 5d, 5-methyl-N-(2-(3-(4-methyl-1H-imidazol-1-yl)-5-(trifluoromethyl)phenyl)-1H-benz[d]imidazol-5-yl)isoxazole-4-carboxamide], the IC50 is less than 3 µM.
Same read-out and setting: for `Cc1oncc1C(=O)Nc1ccc2[nH]c(-c3cc(-n4cncc4C)cc(C(F)(F)F)c3)nc2c1` [Compound 5e, 5-methyl-N-(2-(3-(5-methyl-1H-imidazol-1-yl)-5-(trifluoromethyl)phenyl)-1H-benz[d]imidazol-5-yl)isoxazole-4-carboxamide] the value was less than 3 µM; for `Cc1oncc1C(=O)Nc1ccc2[nH]c(-c3cc(-n4ccnc4C)cc(C(F)(F)F)c3)nc2c1` [Compound 5f, 5-methyl-N-(2-(3-(2-methyl-1H-imidazol-1-yl)-5-(trifluoromethyl)phenyl)-1H-benz[d]imidazol-5-yl)isoxazol-4-carboxamide], more than 10 µM; for `Cc1oncc1C(=O)Nc1ccc2[nH]c(-c3cc(F)cc(C(F)(F)F)c3)nc2c1` [Compound 5h, N-(2-(3-fluoro-5-(trifluoromethyl)phenyl)-1H-benz[d]imidazol-5-yl)-5-methylisoxazole-4-carboxamide], more than 10 µM.
The same measure, in the same setting: for `Cc1oncc1C(=O)Nc1ccc2[nH]c(-c3cc(OC4CCN(C)CC4)cc(C(F)(F)F)c3)nc2c1` [Compound 5i, 5-methyl-N-(2-(3-((1-methylpiperidin-4-yl)oxy)-5-(trifluoromethyl)phenyl)-1H-benz[d]imidazol-5-yl)isoxazole-4-carboxamide] the value was 3 to 10 µM.
`Cc1oncc1C(=O)Nc1ccc2[nH]c(-c3ccc(N4CCN(C)CC4)c(C(F)(F)F)c3)nc2c1` [Compound 5j, 5-methyl-N-(2-(4-(4-methylpiperazin-1-yl)-3-(trifluoromethyl)phenyl)-1H-benz[d]imidazol-5-yl)isoxazole-4-carboxamide]: the half-inhibitory concentration (IC50) was more than 10 µM.
Take `Cc1oncc1C(=O)Nc1ccc2[nH]c(-c3ccc(Cl)c(C(F)(F)F)c3)nc2c1` [Compound 5k, N-(2-(4-chloro-3-(trifluoromethyl)phenyl)-1H-benz[d]imidazol-5-yl)-5-methylisoxazole-4-carboxamide]: the half-inhibitory concentration (IC50) was in the range of 3 to 10 µM.
Still for that read-out and setting: the value for `Cc1oncc1C(=O)Nc1ccc2[nH]c(-c3ccc(Cl)cc3)nc2c1` [Compound 5l, N-(2-(4-chlorophenyl)-1H-benz[d]imidazol-5-yl)-5-methylisoxazole-4-carboxamide] was 3 to 10 µM; that for `CCN1CCN(Cc2cc(-c3nc4cc(NC(=O)c5cnoc5C)ccc4[nH]3)cc(C(F)(F)F)c2)CC1` [Compound 5m, N-(2-(3-((4-ethylpiperazin-1-yl)methyl)-5-(trifluoromethyl)phenyl)-1H-benz[d]imidazol-5-yl)-5-methylisoxazole-4-carboxamide] was 3 to 10 µM; that for `CCN1CCN(Cc2ccc(-c3nc4cc(NC(=O)c5cnoc5C)ccc4[nH]3)cc2C(F)(F)F)CC1` [Compound 5n, N-(2-(4-((4-ethylpiperazin-1-yl)methyl)-3-(trifluoromethyl)phenyl)-1H-benz[d]imidazol-5-yl)-5-methylisoxazole-4-carboxamide] was 3 to 10 µM.
As to `CC(=O)N1CCC(c2nc3cc(NC(=O)c4cnoc4C)ccc3[nH]2)CC1` [Compound 5o, N-(2-(1-acetylpiperidin-4-yl)-1H-benz[d]imidazol-5-yl)-5-methylisoxazole-4-carboxamide], the concentration for half-maximal inhibition (IC50) was more than 10 µM.
Still for that read-out and setting: the value for `Cc1oncc1C(=O)Nc1ccc2[nH]c(C3CCCC3)nc2c1` [Compound 5p, N-(2-cyclopentyl-1H-benz[d]imidazol-5-yl)-5-methylisoxazole-4-carboxamide] was more than 10 µM.

The same test, now with this note: FLT3 kinase activity; read-out: IC50 against FLT3.
As to `Cc1oncc1C(=O)Nc1ccc2[nH]c(-c3ccc(N4CCOCC4)c(C(F)(F)F)c3)nc2c1` [Compound 5c, 5-methyl-N-(2-(4-morpholino-3-(trifluoromethyl)phenyl)-1H-benz[d]imidazol-5-yl)isoxazole-4-carboxamide], the concentration for half-maximal inhibition (IC50) worked out at 10 µM.
